Columns and labels:
thrombin [1] = target: T1, thrombin (Homo sapiens, UniProt P00734); assay: Determination of the thrombin-inhibitory activity in plasma samples (ecarin-activated); format: biochemical; settings: citrate plasma, ecarin activation, fluorogenic thrombin substrate; in some cases means of individual determinations
Protocol: To determine the inhibition of thrombin in plasma samples, plasma […] is activated by ecarin. Thrombin activity and/or its inhibition by potential inhibitors is/are then measured fluorenscently by addition of a substrate.
The substances to be tested are dissolved in various concentrations in dimethyl sulphoxide and diluted with water. In white 96-well flat-bottomed plates, 20 μl of substance dilution are mixed with 20 μl of ecarin solution (ecarin reagent, from Sigma E-0504, final concentration 20 mU per reaction) in Ca buffer (200 mM Hepes+560 mM sodium chloride+10 mM calcium chloride+0.4% PEG) or with 20 μl of Ca buffer (as unstimulated control). Furthermore, 20 μl of fluorogenic thrombin substrate (from Bachem 1-1120, final concentration 50 μmol/1) and 20 μl of citrate plasma (from Octapharma) are added, and the mixture is homogenized well. The plate is measured in a SpectraFluorplus Reader using a 360 nm excitation filter and a 465 nm emission filter every minute over 20 minutes. […] Representative activity data from this test are given in Table 2 below (in some cases as means of individual determinations): […]

thrombin [2] = target: T1, thrombin; assay: Measurement of the thrombin inhibition in buffer; format: biochemical; settings: human thrombin 0.06 nmol/l in Tris buffer pH 7.4, 22° C., substrate Boc-Asp(OBzl)-Pro-Arg-AMC; in some cases means of individual determinations
Protocol: To determine the thrombin inhibition of the substances listed above, a biochemical test system is constructed in which the conversion of a thrombin substrate is used for determining the enzymatic activity of human thrombin. Here, thrombin cleaves aminomethylcoumarin, which is measured fluorescently, from the peptic substrate. The determinations are carried out in microtitre plates.
Substances to be tested are dissolved in various concentrations in dimethyl sulphoxide and incubated for 15 min with human thrombin (0.06 nmol/l dissolved in 50 mmol/l of Tris buffer [C,C,C-tris(hydroxymethyl)aminomethane], 100 mmol/l of sodium chloride, 0.1% BSA [bovine serum albumin], pH 7.4) at 22° C. The substrate (5 μmol/l Boc-Asp(OBzl)-Pro-Arg-AMC from Bachem) is then added. After 30 min of incubation, the sample is excited at a wavelength of 360 nm and the emission is measured at 460 nm. The measured emissions of the test mixtures with test substance are compared to the control mixtures without test substance (only dimethyl sulphoxide instead of test substance in dimethyl sulphoxide) and IC50 values are calculated from the concentration/activity relationships. Representative activity data from this test are given in Table 1 below (in some cases as means of individual determinations): […]

Row | Structure (SMILES) | IC50 (thrombin [1]) [nM] | IC50 (thrombin [2]) [nM]
1 | COc1cc(C(=O)N2CC(C)(C)OC[C@H]2CCO)cc2nc(NCc3cc(Cl)ccn3)oc12 [Example 58, (2-{[(4-Chloropyridin-2-yl)methyl]amino}-7-methoxy-1,3-benzoxazol-5-yl)[(5R)-5-(2-hydroxyethyl)-2,2-dimethylmorpholin-4-yl]methanone] | 27 | 17
2 | COCC1COC(C)(CCO)CN1C(=O)c1cc(OC)c2oc(NCc3cc(Cl)ccn3)nc2c1 (centres unmarked) [Example 30] | 65 | 25
3 | COc1cc(C(=O)N2CCOC(C)(CC(C)O)C2)cc2nc(NCc3cc(Cl)ccn3)oc12 (single isomer, unassigned) [Example 61, (2-{[(4-Chloropyridin-2-yl)methyl]amino}-7-methoxy-1,3-benzoxazol-5-yl) [2-(2-hydroxypropyl)-2-methylmorpholin-4-yl]methanone] | 100 | 24
4 | COc1cc(C(=O)N2CC(C)OC[C@@H]2[C@@H](C)O)cc2nc(NCc3cc(Cl)ccn3)oc12 (stereo partly drawn) [Example 68, (2-{[(4-Chloropyridin-2-yl)methyl]amino}-7-methoxy-1,3-benzoxazol-5-yl){(5R)-5-[(1R)-1-hydroxyethyl]-2-methylmorpholin-4-yl}methanone] | 72 | 59
5 | COc1cc(C(=O)N2CC(C)OCC2CC(C)(C)O)cc2nc(NCc3cc(Cl)ccn3)oc12 (single isomer, unassigned) [Example 56, (2-{[(4-Chloropyridin-2-yl)methyl]amino}-7-methoxy-1,3-benzoxazol-5-yl) [5-(2-hydroxy-2-methylpropyl)-2-methylmorpholin-4-yl]methanone] | 57 | 25
6 | COc1cc(C(=O)N2CC(C)OCC2CC(C)O)cc2nc(NCc3cc(Cl)ccn3)oc12 (single isomer, unassigned) [Example 67, (2-{[(4-Chloropyridin-2-yl)methyl]amino}-7-methoxy-1,3-benzoxazol-5-yl) [5-(2-hydroxypropyl)-2-methylmorpholin-4-yl]methanone] | 38 | 16
7 | CCC1C(=O)NC2(CC2)CN1C(=O)c1cc(OC)c2oc(NCc3cc(Cl)ccn3)nc2c1 (single isomer, unassigned) [Example 79, 7-[(2-{[(4-Chloropyridin-2-yl)methyl]amino}-7-methoxy-1,3-benzoxazol-5-yl)carbonyl]-6-ethyl-4,7-diazaspiro[2.5]octan-5-one] | 14 | 4.5
8 | COc1cc(C(=O)N2CC(C)(C)OCC2C(C)O)cc2nc(NCc3cc(Cl)ccn3)oc12 (single isomer, unassigned) [Example 95, (2-{[(4-Chloropyridin-2-yl)methyl]amino}-7-methoxy-1,3-benzoxazol-5-yl) [5-(1-hydroxyethyl)-2,2-dimethylmorpholin-4-yl]methanone] | 13 | 6.8
9 | COc1cc(C(=O)N2CC(C)OCC2(C)CO)cc2nc(NCc3cc(Cl)ccn3)oc12 (single isomer, unassigned) [Example 20, (2-{[(4-Chloropyridin-2-yl)methyl]amino}-7-methoxy-1,3-benzoxazol-5-yl) [5-(hydroxymethyl)-2,5-dimethylmorpholin-4-yl]methanone] | 66 | 36
10 | COc1cc(C(=O)N2C[C@H](OC3CC3)C[C@H]2C(=O)N2CC(F)(F)C2)cc2nc(NCc3cc(Cl)ccn3)oc12 [Example 10, (2-{[(4-Chloropyridin-2-yl)methyl]amino}-7-methoxy-1,3-benzoxazol-5-yl){(2S,4R)-4-(cyclopropyloxy)-2-[(3,3-difluoroazetidin-1-yl)carbonyl]pyrrolidin-1-yl}methanone] | 39 | 31
11 | COc1cc(C(=O)N2CC(C)(C)OCC2C(C)(C)O)cc2nc(NCc3cc(Cl)ccn3)oc12 (single isomer, unassigned) [Example 93, (2-{[(4-Chloropyridin-2-yl)methyl]amino}-7-methoxy-1,3-benzoxazol-5-yl) [5-(2-hydroxypropan-2-yl)-2,2-dimethylmorpholin-4-yl]methanone] | 17 | 8.8
12 | COc1cc(C(=O)N2CC3CCN3C(=O)C2C)cc2nc(NCc3cc(Cl)ccn3)oc12 (single isomer, unassigned) [Example 75, 4-[(2-{[(4-Chloropyridin-2-yl)methyl]amino}-7-methoxy-1,3-benzoxazol-5-yl)carbonyl]-3-methyl-1,4-diazabicyclo[4.2.0]octan-2-one] | 48 | 32
13 | COc1cc(C(=O)N2CC(C)(C)NC(=O)C2CC#N)cc2nc(NCc3cc(Cl)ccn3)oc12 (racemic) [Example 83, {1-[(2-{[(4-Chloropyridin-2-yl)methyl]amino}-7-methoxy-1,3-benzoxazol-5-yl)carbonyl]-5,5-dimethyl-3-oxopiperazin-2-yl}acetonitrile] | 62 | 36
14 | COc1cc(C(=O)N2CC(C)(CC(C)O)OCC2(C)C)cc2nc(NCc3cc(Cl)ccn3)oc12 (racemic) [Example 34, (2-{[(4-Chloropyridin-2-yl)methyl]amino}-7-methoxy-1,3-benzoxazol-5-yl) [2-(2-hydroxypropyl)-2,5,5-trimethylmorpholin-4-yl]methanone] | 37 | 7.3
15 | COc1cc(C(=O)N2CC(C)OCC2CC(C)(C)O)cc2nc(NCc3cc(Cl)ccn3)oc12 (single isomer, unassigned) [Example 57, (2-{[(4-Chloropyridin-2-yl)methyl]amino}-7-methoxy-1,3-benzoxazol-5-yl) [5-(2-hydroxy-2-methylpropyl)-2-methylmorpholin-4-yl]methanone] | 30 | 20
16 | COc1cc(C(=O)N2CC(C)(C)OCC2C(C)O)cc2nc(NCc3cc(Cl)ccn3)oc12 (single isomer, unassigned) [Example 96, (2-{[(4-Chloropyridin-2-yl)methyl]amino}-7-methoxy-1,3-benzoxazol-5-yl) [5-(1-hydroxyethyl)-2,2-dimethylmorpholin-4-yl]methanone] | 43 | 41
17 | COc1cc(C(=O)N2CC(C)(CCO)OCC2C(F)F)cc2nc(NCc3cc(Cl)ccn3)oc12 (centres unmarked) [Example 54, (2-{[(4-Chloropyridin-2-yl)methyl]amino}-7-methoxy-1,3-benzoxazol-5-yl) [5-(difluormethyl)-2-(2-hydroxyethyl)-2-methylmorpholin-4-yl]methanone] | 35 | 11
18 | COc1cc(C(=O)N2CC(C)CCC2C2(O)CC2)cc2nc(NCc3cc(Cl)ccn3)oc12 (single isomer, unassigned) [Example 90, (2-{[(4-Chloropyridin-2-yl)methyl]amino}-7-methoxy-1,3-benzoxazol-5-yl) [2-(1-hydroxycyclopropyl)-5-methylpiperidin-1-yl]methanone] | 94 | 28
19 | COc1cc(C(=O)N2CC(C)CCC2C2(O)CC2)cc2nc(NCc3cc(Cl)ccn3)oc12 (single isomer, unassigned) [Example 91, (2-{[(4-Chloropyridin-2-yl)methyl]amino}-7-methoxy-1,3-benzoxazol-5-yl) [2-(1-hydroxycyclopropyl)-5-methylpiperidine-1-yl]methanone] | 24 | 13
20 | CCC1C(=O)N2CCC2CN1C(=O)c1cc(OC)c2oc(NCc3cc(Cl)ccn3)nc2c1 (centres unmarked) [Example 73, 4-[(2-{[(4-Chloropyridin-2-yl)methyl]amino}-7-methoxy-1,3-benzoxazol-5-yl)carbonyl]-3-ethyl-1,4-diazabicyclo[4.2.0]octan-2-one] | 50 | 51
21 | COc1cc(C(=O)N2CC3(CC3)NC(=O)C2C)cc2nc(NCc3cc(Cl)ccn3)oc12 (racemic) [Example 76, 7-[(2-{[(4-Chloropyridin-2-yl)methyl]amino}-7-methoxy-1,3-benzoxazol-5-yl)carbonyl]-6-methyl-4,7-diazaspiro[2.5]octan-5-one] | 36 | 19
22 | COc1cc(C(=O)N2CC(C)(CCO)OCC2COC(F)F)cc2nc(NCc3cc(Cl)ccn3)oc12 (single isomer, unassigned) [Example 60, (2-{[(4-Chloropyridin-2-yl)methyl]amino}-7-methoxy-1,3-benzoxazol-5-yl){5-[(difluoromethoxy)methyl]-2-(2-hydroxyethyl)-2-methylmorpholin-4-yl}methanone] | 24 | 5.2

Source: patent US20160108027A1, “SUBSTITUTED BENZOXAZOLES” (BAYER PHARMA AKTIENGESELLSCHAFT, priority 2013, published 2016)
